Assay results: patent publication US20240228458A1, “PYRIMIDINE DERIVATIVE HAVING PROTEIN KINASE INHIBITORY ACTIVITY, AND THERAPEUTIC PHARMACEUTICAL COMPOSITION COMPRISING SAME” (THERAPEX CO., LTD., priority 2021, published 2024)

Experiments:
Type in all cases: cell-based
[1] = system: Ba/F3 cells expressing EGFR-wt; assay: Growth inhibition (GI50) of Ba/F3 cells expressing EGFR-wt, Celltiter glo; details: Mus musculus, BaF3, 72 h
Summary of the method: (§1)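 Antiproliferative activity was assessed in EGFR-mutant or wild-type Ba/F3 cells over 72 h at 37 °C with 5% CO2. Cell viability was determined by CellTiter-Glo, and GI50 taken as the compound concentration inhibiting growth by 50%.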

[2] = system: Ba/F3 cells expressing del19/T790M/C797S (EGFR-DTC); assay: Growth inhibition (GI50) of Ba/F3 cells expressing del19/T790M/C797S (EGFR-DTC), Celltiter glo; details: Mus musculus, BaF3, 72 h
Summary of the method: as §1

[3] = system: Ba/F3 cells expressing L858R/T790M/C797S (EGFR-LTC); assay: Growth inhibition (GI50) of Ba/F3 cells expressing L858R/T790M/C797S (EGFR-LTC), Celltiter glo; details: Mus musculus, BaF3, 72 h
Summary of the method: as §1

[4] = system: Ba/F3 cells expressing del19/T790M (EGFR-DT); assay: Growth inhibition (GI50) of Ba/F3 cells expressing del19/T790M (EGFR-DT), Celltiter glo; details: Mus musculus, BaF3, 72 h
Summary of the method: as §1

[5] = system: Ba/F3 cells expressing L858R/T790M (EGFR-LT); assay: Growth inhibition (GI50) of Ba/F3 cells expressing L858R/T790M (EGFR-LT), Celltiter glo; details: Mus musculus, BaF3, 72 h
Summary of the method: as §1

parental Ba/F3 cell line = assay: Growth inhibition (GI50) of the parental Ba/F3 cell line (not introduced with EGFR variants), Celltiter glo; details: Mus musculus, BaF3, 72 h, parental Ba/F3 cells
Summary of the method: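 Parental Ba/F3 cells (100,000 cells/ml) were treated with 10-point, 4-fold compound dilutions (0.5% DMSO; top stock 2 mM) for 72 h at 37 °C, 5% CO2. Viability was read by CellTiter-Glo; GI50 is the concentration (μM) giving 50% growth inhibition.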

Row | GI50 [1] | GI50 [2] | GI50 [3] | GI50 [4] | GI50 [5] | Compound | GI50 (parental Ba/F3 cell line)
1 | 0.1 to 0.5 µM | 0.025 to 0.1 µM | 0.001 to 0.025 µM | 0.001 to 0.025 µM | 0.001 to 0.025 µM | COc1cc(N2CCC(N3CCCC(N(C)C)C3)CC2)c(Br)cc1Nc1ncc(Br)c(Nc2cc3c(cc2NS(C)(=O)=O)CCO3)n1 (stereo not drawn) [Example 281, N-(6-((5-bromo-2-((5-bromo-4-(3-(dimethylamino)-[1,4′-bipiperidin]-1′-yl)-2-methoxyphenyl)amino)pyrimidin-4-yl)amino)-2,3-dihydrobenzofuran-5-yl)methanesulfonamide] | 0.1 to 0.5 µM
2 | 0.1 to 0.5 µM | 0.025 to 0.1 µM | 0.025 to 0.1 µM | 0.025 to 0.1 µM | 0.001 to 0.025 µM | COc1cc(N2CCC(N3CCNCC3)CC2)c(C)cc1Nc1ncc(Cl)c(Nc2cc3c(cc2NS(C)(=O)=O)CCO3)n1 [Example 207, N-(6-((5-chloro-2-((2-methoxy-5-methyl-4-(4-(piperazin-1-yl)piperidin-1-yl)phenyl)amino)pyrimidin-4-yl)amino)-2,3-dihydrobenzofuran-5-yl)methanesulfonamide] | 2 to 10 µM
3 | 2 to 10 µM | 0.1 to 0.5 µM | 0.5 to 2 µM | 0.5 to 2 µM | 2 to 10 µM | Cc1cc(Nc2ncc(Cl)c(Nc3cc(Cl)ccc3P(C)(C)=O)n2)c(Cl)cc1N1CCC(N2CCN(C)CC2)CC1 [Example 154, (4-chloro-2-((5-chloro-2-((2-chloro-5-methyl-4-(4-(4-methylpiperazin-1-yl)piperidin-1-yl)phenyl)amino)pyrimidin-4-yl)amino)phenyl)dimethylphosphine oxide] | 2 to 10 µM
4 | 0.025 to 0.1 µM | 0.1 to 0.5 µM | 0.001 to 0.025 µM | 0.001 to 0.025 µM | 0.001 to 0.025 µM | COc1cc(N2CCC(N3CCCC(N(C)C)C3)CC2)c(Br)cc1Nc1ncc(Cl)c(Nc2cc3c(cc2NS(C)(=O)=O)CCO3)n1 (stereo not drawn) [Example 280, N-(6-((2-((5-bromo-4-(3-(dimethylamino)-[1,4′-bipiperidin]-1′-yl)-2-methoxyphenyl)amino)-5-chloropyrimidin-4-yl)amino)-2,3-dihydrobenzofuran-5-yl)methanesulfonamide] | 2 to 10 µM
5 | 2 to 10 µM | 0.1 to 0.5 µM | 2 to 10 µM | 2 to 10 µM | 2 to 10 µM | COc1cc(N2CCC(N3CCN(C)CC3)CC2)c(C)cc1Nc1nnc(Cl)c(Nc2ccc(F)cc2NS(C)(=O)=O)n1 [Example 164, N-(2-((6-chloro-3-((2-methoxy-5-methyl-4-(4-(4-methylpiperazin-1-yl)piperidin-1-yl)phenyl)amino)-1,2,4-triazin-5-yl)amino)-5-fluorophenyl)methanesulfonamide] | > 10 µM
6 | 0.1 to 0.5 µM | 0.001 to 0.025 µM | 0.001 to 0.025 µM | 0.001 to 0.025 µM | 0.001 to 0.025 µM | COc1cc(N2CCC(N3CCN(C)CC3)CC2)c(C)cc1Nc1ncc(Br)c(Nc2cc3c(cc2N(C)S(C)(=O)=O)CCO3)n1 [Example 250, N-(6-((5-bromo-2-((2-methoxy-5-methyl-4-(4-(4-methylpiperazin-1-yl)piperidin-1-yl)phenyl)amino)pyrimidin-4-yl)amino)-2,3-dihydrobenzofuran-5-yl)-N-methylmethanesulfonamide] | 2 to 10 µM
7 | 2 to 10 µM | 2 to 10 µM | 0.1 to 0.5 µM | 2 to 10 µM | 0.1 to 0.5 µM | COc1nc(N2CCCN(C)CC2)ccc1Nc1ncc(Br)c(Nc2cc3c(cc2NS(C)(=O)=O)CCO3)n1 [Example 238, N-(6-((5-bromo-2-((2-methoxy-6-(4-methyl-1,4-diazepan-1-yl)pyridin-3-yl)amino)pyrimidin-4-yl)amino)-2,3-dihydrobenzofuran-5-yl)methanesulfonamide] | 2 to 10 µM
8 | 2 to 10 µM | 0.5 to 2 µM | 0.5 to 2 µM | 0.5 to 2 µM | 0.5 to 2 µM | COc1cc(N2CCC(N3CCN(C)CC3)CC2)c(C)cc1Nc1ncc(Cl)c(Nc2ccc3c(c2)N(C)CC3)n1 [Example 272] | 2 to 10 µM
9 | 0.1 to 0.5 µM | 0.001 to 0.025 µM | 0.025 to 0.1 µM | 0.025 to 0.1 µM | 0.001 to 0.025 µM | COc1cc(N2CCC(N3CCC(N(C)C)C3)CC2)c(C)cc1Nc1ncc(Cl)c(Nc2cc3c(cc2NS(C)(=O)=O)CCO3)n1 (stereo not drawn) [Example 209, N-(6-((5-chloro-2-((4-(4-(3-(dimethylamino)pyrrolidin-1-yl)piperidin-1-yl)-2-methoxy-5-methylphenyl)amino)pyrimidin-4-yl)amino)-2,3-dihydrobenzofuran-5-yl)methanesulfonamide] | 2 to 10 µM
10 | 0.5 to 2 µM | 0.001 to 0.025 µM | 0.1 to 0.5 µM | 0.001 to 0.025 µM | 0.025 to 0.1 µM | COc1cc(N2CCC(N3CCCC(N(C)C)C3)CC2)c(C)cc1Nc1ncc(Br)c(Nc2cc3c(cc2NS(C)(=O)=O)CCO3)n1 (stereo not drawn) [Example 196, N-(6-((5-bromo-2-((4-(3-(dimethylamino)-[1,4′-bipiperidin]-1′-yl)-2-methoxy-5-methylphenyl)amino)pyrimidin-4-yl)amino)-2,3-dihydrobenzofuran-5-yl)methanesulfonamide] | 2 to 10 µM
11 | 0.5 to 2 µM | 0.025 to 0.1 µM | 0.1 to 0.5 µM | 0.025 to 0.1 µM | 0.1 to 0.5 µM | COc1ccc(NS(C)(=O)=O)c(Nc2nc(Nc3cc(C)c(N4CCC(N5CCCC(N(C)C)C5)CC4)cc3OC)ncc2Cl)c1 (stereo not drawn) [Example 232, N-(2-((5-chloro-2-((4-(3-(dimethylamino)-[1,4′-bipiperidin]-1′-yl)-2-methoxy-5-methylphenyl)amino)pyrimidin-4-yl)amino)-4-methoxyphenyl)methanesulfonamide] | 2 to 10 µM
12 | 2 to 10 µM | 0.025 to 0.1 µM | 0.001 to 0.025 µM | 0.1 to 0.5 µM | 0.001 to 0.025 µM | COc1cc(N2CCC(N3CCC(C(F)(F)F)CC3)CC2)c(C)cc1Nc1ncc(Br)c(Nc2cc3c(cc2NS(C)(=O)=O)CCO3)n1 [Example 245, N-(6-((5-bromo-2-((2-methoxy-5-methyl-4-(4-(trifluoromethyl)-[1,4′-bipiperidin]-1′-yl)phenyl)amino)pyrimidin-4-yl)amino)-2,3-dihydrobenzofuran-5-yl)methanesulfonamide] | 2 to 10 µM
13 | 0.5 to 2 µM | 0.1 to 0.5 µM | 0.1 to 0.5 µM | 0.025 to 0.1 µM | 0.1 to 0.5 µM | COc1ccc(NS(C)(=O)=O)c(Nc2nc(Nc3cc(C)c(N4CCC(N5CCC(N(C)C)C5)CC4)cc3Cl)ncc2Cl)c1 (stereo not drawn) [Example 230, N-(2-((5-chloro-2-((2-chloro-4-(4-(3-(dimethylamino)pyrrolidin-1-yl)piperidin-1-yl)-5-methylphenyl)amino)pyrimidin-4-yl)amino)-4-methoxyphenyl)methanesulfonamide] | 2 to 10 µM
14 | 0.1 to 0.5 µM | 0.025 to 0.1 µM | 0.025 to 0.1 µM | 0.025 to 0.1 µM | 0.025 to 0.1 µM | CN1CCN(C2CCN(c3ccc(Nc4ncc(Br)c(Nc5cc(Cl)ccc5NS(C)(=O)=O)n4)cc3F)CC2)CC1 [Example 87, N-(2-((5-bromo-2-((3-fluoro-4-(4-(4-methylpiperazin-1-yl)piperidin-1-yl)phenyl)amino)pyrimidin-4-yl)amino)-4-chlorophenyl)methanesulfonamide] | 0.1 to 0.5 µM
15 | 0.5 to 2 µM | 0.025 to 0.1 µM | 0.025 to 0.1 µM | 0.001 to 0.025 µM | 0.1 to 0.5 µM | CCc1cc(Nc2ncc(Cl)c(Nc3cc(OC)ccc3NS(C)(=O)=O)n2)c(OC)cc1N1CCC(N2CCN(C)CC2)CC1 [Example 203, N-(2-((5-chloro-2-((5-ethyl-2-methoxy-4-(4-(4-methylpiperazin-1-yl)piperidin-1-yl)phenyl)amino)pyrimidin-4-yl)amino)-4-methoxyphenyl)methanesulfonamide] | 2 to 10 µM
16 | 0.1 to 0.5 µM | 0.001 to 0.025 µM | 0.025 to 0.1 µM | 0.001 to 0.025 µM | 0.001 to 0.025 µM | COc1cc(N2CCC(N3CCCN(C)CC3)CC2)c(Cl)cc1Nc1ncc(Cl)c(Nc2cc3c(cc2NS(C)(=O)=O)CCO3)n1 [Example 174, N-(6-((5-chloro-2-((5-chloro-2-methoxy-4-(4-(4-methyl-1,4-diazepan-1-yl)piperidin-1-yl)phenyl)amino)pyrimidin-4-yl)amino)-2,3-dihydrobenzofuran-5-yl)methanesulfonamide] | 0.5 to 2 µM
17 | 0.5 to 2 µM | 0.1 to 0.5 µM | 0.025 to 0.1 µM | 0.5 to 2 µM | 0.5 to 2 µM | COc1cc(N2CCC(N3CCN(C)CC3)CC2)c(C)cc1Nc1ncc(Br)c(Nc2ccccc2N=S(C)(C)=O)n1 [Example 142] | 0.5 to 2 µM
18 | 0.1 to 0.5 µM | 0.001 to 0.025 µM | 0.025 to 0.1 µM | 0.001 to 0.025 µM | 0.001 to 0.025 µM | COc1cc(N2CCC(N3CCN(C4CC4)CC3)CC2)c(C)cc1Nc1ncc(Cl)c(Nc2cc3c(cc2NS(C)(=O)=O)CCO3)n1 [Example 208, N-(6-((5-chloro-2-((4-(4-(4-cyclopropylpiperazin-1-yl)piperidin-1-yl)-2-methoxy-5-methylphenyl)amino)pyrimidin-4-yl)amino)-2,3-dihydrobenzofuran-5-yl)methanesulfonamide] | 2 to 10 µM
